The values below come from PubChem BioAssay AID208 (DTP/NCI, 2004).

SMILES strings stand for the structures. Values joined by “and” are separate entries in the source; they are usually repeats but may differ in a detail not shown here. Equal entries are not always repeated. Inconclusive results are not listed.

This test concerns HT29 intrarenal xenograft, nude mice, tumor weight change. Briefly: NCI In Vivo Anticancer Drug Screen. Data for tumor model HT29;CX-1 Human Adenocarcinoma (MER+) (intrarenal inoculation) in NU/NU BALB/C (nude) mice. To be noted: endpoint: mean tumor weight change, higher = larger tumour. The method, then:
The antitumor activity of compounds was measured in mice bearing transplantable tumors. Survival or tumor size were measured and the results are expressed as the measurement made in the treated group (T) divided by the measurement made in the vehicle treated control group (C). The tumor model used in this assay is HT29;CX-1 Human Adenocarcinoma (MER+) (intrarenal inoculation) in NU/NU BALB/C (nude) mice

Where [1] appears, read: dose: 600.0 mg/kg/injection, schedule: Q04DX004 (sc), vehicle: saline.
[2] abbreviates: dose: 25.0 mg/kg/injection, schedule: Q01DX010 (sc), vehicle: saline.
Where [3] appears, read: dose: 50.0 mg/kg/injection, schedule: Q01DX010 (sc), vehicle: saline.
The mark [4] stands for this setting: dose: 100.0 mg/kg/injection, schedule: Q01DX010 (sc), vehicle: saline.
[5] abbreviates: dose: 200.0 mg/kg/injection, schedule: Q01DX010 (sc), vehicle: saline.
The mark [6] stands for this setting: dose: 150.0 mg/kg/injection, schedule: Q04DX004 (sc), vehicle: saline.
The mark [7] stands for this setting: dose: 300.0 mg/kg/injection, schedule: Q04DX004 (sc), vehicle: saline.
[8] abbreviates: dose: 75.0 mg/kg/injection, schedule: Q04DX004 (sc), vehicle: suspension in saline.
Where [9] appears, read: dose: 150.0 mg/kg/injection, schedule: Q04DX004 (sc), vehicle: suspension in saline.
Where [10] appears, read: dose: 100.0 mg/kg/injection, schedule: Q04DX004 (sc), vehicle: saline.

`O=C(O)CP(=O)(O)O`: the T/C is 51 % of control under setting [1]; 118 % of control (dose: 1200.0 mg/kg/injection, schedule: Q04DX004 (sc), vehicle: saline); 34 % of control (dose: 2400.0 mg/kg/injection, schedule: Q04DX004 (sc), vehicle: saline).
In the case of `O=C(O)CC(NC(=O)CP(=O)(O)O)C(=O)O` (stereo not given), the T/C runs as follows: under setting [2], 123 % of control; under setting [3], 94 % of control; under setting [4], 91 % of control; under setting [5], 70 % of control.
As for `CC(=O)OC(C)C1C2=C(C(=O)CC1(C)O)C(=O)c1c(ccc(-c3ccc4c(c3O)C(=O)C3=C(C4=O)C(C(C)OC(C)=O)C(C)(O)CC3=O)c1O)C2=O` (stereo not given), the T/C reads like this: (dose: 0.94 mg/kg/injection, schedule: Q04DX004 (ip), vehicle: saline with Tween-80) 94 % of control; (dose: 1.9 mg/kg/injection, schedule: Q04DX004 (ip), vehicle: saline with Tween-80) 92 % of control; (dose: 3.75 mg/kg/injection, schedule: Q04DX004 (ip), vehicle: saline with Tween-80) 88 % of control; (dose: 7.5 mg/kg/injection, schedule: Q04DX004 (ip), vehicle: saline with Tween-80) 101 % of control; (dose: 30.0 mg/kg/injection, schedule: Q04DX004 (ip), vehicle: saline with Tween-80) 162 % of control.
With `CN(N=O)C(=O)N[C@@H](C=O)[C@@H](O)[C@H](O)[C@H](O)CO`, the T/C by setting is: under setting [6], 111 % of control; under setting [7], 38 % of control.
For `C[C@H]1C[C@@H]2[C@H]([C@@H](O)C[C@@]3(C)[C@H]2CC[C@]3(O)C(=O)CO)[C@@]2(C)C=CC(=O)C=C12`, the T/C reads like this: (dose: 200.0 mg/kg/injection, schedule: Q04DX004 (sc), vehicle: Klucel (hydroxypropylcellulose) (HPC)) 14 % of control; (dose: 400.0 mg/kg/injection, schedule: Q04DX004 (sc), vehicle: Klucel (hydroxypropylcellulose) (HPC)) 19 % of control; (dose: 800.0 mg/kg/injection, schedule: Q04DX004 (sc), vehicle: Klucel (hydroxypropylcellulose) (HPC)) 29 % of control.
As to `CN(C)c1ccc2c(NCCCCCCNc3ccnc4cc(N(C)C)ccc34)ccnc2c1`, the T/C was 92 % of control (dose: 37.5 mg/kg/injection, schedule: Q04DX004 (sc), vehicle: distilled water + Tween-80 + alcohol); 60 % of control (dose: 75.0 mg/kg/injection, schedule: Q04DX004 (sc), vehicle: distilled water + Tween-80 + alcohol); 54 % of control (dose: 150.0 mg/kg/injection, schedule: Q04DX004 (sc), vehicle: distilled water + Tween-80 + alcohol).
Regarding `CCOC(=O)C(CC(C)C)NC(=O)C(Cc1ccc(N(CCCl)CCCl)cc1)NC(C)=O` (stereo not given), the T/C is 46 % of control (dose: 100.0 mg/kg/injection, schedule: Q01DX010 (sc), vehicle: saline with Tween-80) and 2 % of control (dose: 200.0 mg/kg/injection, schedule: Q01DX010 (sc), vehicle: saline with Tween-80).
Regarding `O=CC(NC(=O)N(CCCl)N=O)C(O)C(O)C(O)CO` (stereo not given), the T/C by setting is: (dose: 1.5 mg/kg/injection, schedule: Q01DX010 (sc), vehicle: Klucel (hydroxypropylcellulose) (HPC)) 45 % of control; (dose: 3.0 mg/kg/injection, schedule: Q01DX010 (sc), vehicle: Klucel (hydroxypropylcellulose) (HPC)) 42 % of control; (dose: 6.0 mg/kg/injection, schedule: Q01DX010 (sc), vehicle: Klucel (hydroxypropylcellulose) (HPC)) 35 % of control.
As to `Cn1cnc([N+](=O)[O-])c1S(=O)(=O)NCN1CCOCC1`, the T/C (dose: 100.0 mg/kg/injection, schedule: Q01DX010 (sc), vehicle: Klucel (hydroxypropylcellulose) (HPC)) is 80 % of control.
On to `OCC1OC(n2cnc3c(=S)nc[nH]c32)C(O)C1O` (stereo not given), for which the T/C was 91 % of control under setting [6], 173 % of control under setting [7] and 103 % of control under setting [1].
In the case of `c1ccc2c(NCCCCCCNc3c4ccccc4nc4ccccc34)c3ccccc3nc2c1`, the T/C was 154 % of control (dose: 5.0 mg/kg/injection, schedule: Q01DX010 (sc), vehicle: Klucel (hydroxypropylcellulose) (HPC)) and 88 % of control (dose: 10.0 mg/kg/injection, schedule: Q01DX010 (sc), vehicle: Klucel (hydroxypropylcellulose) (HPC)).
As to `CCNC=O`, the T/C was 82 % of control (dose: 150.0 mg/kg/injection, schedule: Q01DX010 (ip), vehicle: suspension in saline); 42 % of control (dose: 300.0 mg/kg/injection, schedule: Q01DX010 (ip), vehicle: suspension in saline); 39 % of control (dose: 600.0 mg/kg/injection, schedule: Q01DX010 (ip), vehicle: suspension in saline).
Consider `O=C1C=CC(n2cc(F)c(=O)[nH]c2=O)O1` (stereo not given), for which the T/C runs as follows: (dose: 37.5 mg/kg/injection, schedule: Q04DX004 (sc), vehicle: suspension in saline) 87 % of control; under setting [8], 88 % of control; under setting [9], 47 % of control.
For `COc1nc(=O)n(C2C=CC(=O)O2)cc1F` (stereo not given), the T/C is, setting by setting: under setting [8], 52 % of control; under setting [9], 122 % of control.
`C[N+](C)(C)c1ncnc2nc[nH]c12`: the T/C under setting [3] was 111 % of control, the T/C under setting [4] is 83 % of control and the T/C under setting [5] is 29 % of control.
In the case of `CCCCCCCC(=O)OCC(=O)[C@]1(O)Cc2c(O)c3c(c(O)c2[C@@H](OC2CC(N)C(O)C(C)O2)C1)C(=O)c1c(OC)cccc1C3=O` (stereo not given in full), the T/C (dose: 2.0 mg/kg/injection, schedule: Q04DX004 (sc), vehicle: saline) was 63 % of control; the T/C (dose: 4.0 mg/kg/injection, schedule: Q04DX004 (sc), vehicle: saline) is 78 % of control; the T/C (dose: 8.0 mg/kg/injection, schedule: Q04DX004 (sc), vehicle: saline) is 48 % of control; the T/C (dose: 16.0 mg/kg/injection, schedule: Q04DX004 (sc), vehicle: saline) was 30 % of control.
For the compound `O=C(C/C(=N\C(=S)Nc1cc(C(F)(F)F)ccc1Cl)NO)N1CCCC1`, the T/C runs as follows: (dose: 600.0 mg/kg/injection, schedule: Q04DX003 (sc), vehicle: saline with Tween-80) 114 % of control; (dose: 1200.0 mg/kg/injection, schedule: Q04DX003 (sc), vehicle: saline with Tween-80) 88 % of control.
With `CN=C(NC#N)NCCSCc1nc[nH]c1C`, the T/C is, setting by setting: (dose: 225.0 mg/kg/injection, schedule: Q04DX004 (sc), vehicle: Klucel (hydroxypropylcellulose) (HPC)) 75 % of control; (dose: 450.0 mg/kg/injection, schedule: Q04DX004 (sc), vehicle: Klucel (hydroxypropylcellulose) (HPC)) 99 % of control; (dose: 900.0 mg/kg/injection, schedule: Q04DX004 (sc), vehicle: Klucel (hydroxypropylcellulose) (HPC)) 92 % of control.
For the compound `O=P1(N(CCCl)CCCl)NCCCO1` (stereo not given), the T/C was 62 % of control and 77 % of control and 83 % of control (dose: 60.0 mg/kg/injection, schedule: Q04DX004 (ip), vehicle: saline); 19 % of control and 21 % of control under setting [10].
Turning to `CCOC(=O)C(N)CSC(=O)NC` (stereo not given), the T/C is 108 % of control (dose: 150.0 mg/kg/injection, schedule: Q04DX004 (ip), vehicle: saline); 58 % of control under setting [6]; 103 % of control (dose: 300.0 mg/kg/injection, schedule: Q04DX004 (ip), vehicle: saline); 75 % of control under setting [7]; 111 % of control (dose: 600.0 mg/kg/injection, schedule: Q04DX004 (ip), vehicle: saline); 59 % of control under setting [1].
Take `Cc1cc(N(CC(C)Br)CC(C)Br)ccc1N=Nc1ccccc1C(=O)O` (stereo not given): the T/C is 65 % of control (dose: 3.13 mg/kg/injection, schedule: Q01DX010 (sc), vehicle: saline with Tween-80); 55 % of control (dose: 6.25 mg/kg/injection, schedule: Q01DX010 (sc), vehicle: saline with Tween-80); 57 % of control (dose: 12.5 mg/kg/injection, schedule: Q01DX010 (sc), vehicle: saline with Tween-80).
For `Oc1ccc(O)cc1`, under setting [10], the T/C was 106 % of control.
For the compound `COc1cc2cc(c1Cl)N(C)C(=O)C[C@H](OC(=O)[C@H](C)N(C)C(C)=O)[C@]1(C)O[C@H]1[C@H](C)[C@@H]1C[C@@](O)(NC(=O)O1)[C@H](OC)C=C/C=C(\C)C2`, the T/C reads like this: (dose: 25.0 micrograms/kg/injection, schedule: Q01DX010 (sc), vehicle: Klucel (hydroxypropylcellulose) (HPC)) 315 % of control; (dose: 50.0 micrograms/kg/injection, schedule: Q01DX010 (sc), vehicle: Klucel (hydroxypropylcellulose) (HPC)) 118 % of control and 310 % of control.
As for `C(CSC1=NCCN1)CSC1=NCCN1`, the T/C by setting is: under setting [2], 78 % of control; under setting [4], 66 % of control; under setting [5], 46 % of control.
With `OC1(CSc2ccccc2)CCCCC1`, the T/C is, setting by setting: (dose: 1200.0 mg/kg/injection, schedule: Q04DX004 (sc), vehicle: saline with Tween-80) 65 % of control; (dose: 2400.0 mg/kg/injection, schedule: Q04DX004 (sc), vehicle: saline with Tween-80) 68 % of control.
